Experimental data published in patent publication US11203591B2, “Substituted 6-azabenzimidazole compounds” (Gilead Sciences, Inc., priority 2018, dated 2021).

Target: human HPK1 (MAP4K1) (Homo sapiens (Human), UniProt Q92918)
Assay: HPK1 IC50 Assay (TR-FRET peptide phosphorylation)
Assay type: biochemical
Description: The enzymatic activity of human HPK1 (MAP4K1) was monitored in a biochemical assay in the presence or absence of compounds and using a synthetic peptide substrate. An increase in phosphorylation of the peptide by HPK1 was indicative of its kinase activity.
Recombinant HPK1 kinase domain produced via baculovirus infection of insect cells was obtained from Proteros (Proteros Biostructures #PR-0322) and was pre-activated in the presence of 2 mM ATP (Sigma-Aldrich, cat #GE27-2056-01) and 2 mM magnesium chloride for 16 hours at 4° C. The protein reaction mixture was then loaded to a desalting column (Thermo Fisher Scientific, Cat #89889) to remove excess ATP. HPK1 was eluted with buffer containing 20 mM Tris (2-Amino-2-(hydroxymethyl)propane-1,3-diol) pH 8.0, 150 mM NaCl, 2 mM dithiothreitol and 5% glycerol, and was frozen at −80° C. for later use. HPK1 dual phosphorylation was confirmed by mass spectrometry.
Ten nanoliters of test compounds dissolved in DMSO at various concentrations were dispensed into a 384-well ProxiPlate (PerkinElmer #6008289). Five microliters of a solution of recombinant HPK1 diluted in HPK1 kinase assay buffer (50 mM BES [N,N-Bis(2-hydroxyethyl)-2-aminoethanesulfonic acid], pH 7.0; 10 mM magnesium chloride; 0.01% Triton X-100; 1 mM dithiothreitol; 0.01% bovine serum albumin; 0.1 mM sodium orthovanadate) was added to the compound-containing plate and was incubated for 15 minutes at 25° C. Five microliters of a mixture of ATP (Sigma-Aldrich #A6559) and peptide substrate STK S1 (Cisbio #61ST1BLC) diluted in HPK1 kinase assay buffer was then added to start the reaction. Final concentrations were 0.15 nM for HPK1, 10 μM for ATP, and 1 μM for the STK S1 peptide substrate. The reaction mixture was incubated at 25° C. for 3 hours and was stopped with the addition of 10 μl of an EDTA (Ethylenediaminetetraacetic acid)-containing detection buffer (Cisbio #62SDBRDF) supplemented with Europium cryptate-labeled anti-phospho-serine/threonine antibodies (Cisbio #62ST1PEJ) and XL665-labeled streptavidin (Cisbio #610SAXLG). The mixture was incubated for 16 hours at room temperature and peptide phosphorylation was measured by time-resolved fluorescence energy transfer (665 nm/620 nm) on an Envision plate reader (PerkinElmer).
Data in Table 1 were normalized based on positive (staurosporine) and negative (DMSO) controls. Least squares curve fittings were performed using a four-parameter variable slope nonlinear regression model. IC50 is defined as the concentration of compound required to inhibit 50% of maximum phosphorylation. IC50 values from multiple experiments were averaged by geometric mean and the standard deviation was calculated.

[1] = recombinant HPK1 kinase domain 0.15 nM, 10 μM ATP, 1 μM STK S1 peptide, geometric mean of multiple experiments
[2] = 0.15 nM HPK1, 10 μM ATP, 1 μM STK S1 peptide substrate, geometric mean

human HPK1 (MAP4K1), sequence (Q92918 17-274): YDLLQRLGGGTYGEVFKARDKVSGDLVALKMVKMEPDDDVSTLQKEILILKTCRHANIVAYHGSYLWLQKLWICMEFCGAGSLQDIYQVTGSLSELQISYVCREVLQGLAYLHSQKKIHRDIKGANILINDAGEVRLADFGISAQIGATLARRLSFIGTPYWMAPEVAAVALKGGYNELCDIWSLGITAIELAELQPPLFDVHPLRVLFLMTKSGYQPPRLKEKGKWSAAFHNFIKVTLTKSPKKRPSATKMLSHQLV

SMILES | IC50 [1] | IC50 [2]
Cc1c(C(=O)NC2(C(F)F)CC2)cc(Nc2nc(-c3cnc4c(c3)N(C3CC(C)(N5CCC6C[C@H]5CO6)C3)C(=O)C4(C)C)cc3ncn(C(C)C)c23)c(F)c1F (stereo partly drawn) [Example 192, 5-((6-(1-((1s,3s)-3-(6-oxa-2-azabicyclo[3.2.1]octan-2-yl)-3-methylcyclobutyl)-3,3-dimethyl-2-oxo-2,3-dihydro-1H-pyrrolo[3,2-b]pyridin-6-yl)-3-isopropyl-3H-imidazo[4,5-c]pyridin-4-yl)amino)-N-(1-(difluoromethyl)cyclopropyl)-3,4-difluoro-2-methylbenzamide] | 0.1 nM | 
CNC(=O)c1cc(Nc2nc(-c3ccc4c(c3)N([C@H]3C[C@@H](N5C6COCC5C6)C3)C(=O)C4(C)C)cc3ncn(C(C)C)c23)c(F)cc1C [Example 9] | 0.1 nM | 
CNC(=O)c1cc(Nc2nc(-c3ccc4c(c3)N([C@H]3C[C@@H](N5CCC[C@@H](F)C5)C3)C(=O)C4(C)C)cc3ncn(C(C)C)c23)ccc1C [Example 106] | 0.07 nM | 
Cc1c(C(=O)NC2(C(F)F)CC2)cc(Nc2nc(-c3ccc4c(c3)N([C@H]3C[C@@H](N5CCCCC5)C3)C(=O)C4(C)C)cc3ncn(C(C)C)c23)c(F)c1F [Example 144] | 0.07 nM | 
CC[C@H](C)n1cnc2cc(-c3ccc4c(c3)N([C@H]3C[C@@H](N5CCCCC5)C3)C(=O)C43CCN(C(C)=O)CC3)nc(Nc3ccc(C)c(C(=O)NC)c3)c21 [Example 48] | 0.1 nM | 
CNC(=O)c1cc(Nc2nc(-c3ccc4c(c3)N([C@H]3C[C@@H](N5CCCCC5)C3)C(=O)C43CCN(C4COC4)CC3)cc3ncn(C(C)C)c23)c(F)cc1C [Example 68] | 0.2 nM | 
CCn1cnc2cc(-c3ccc4c(c3)N([C@H]3C[C@@H](N5CCCCC5)C3)C(=O)C4(C)C)nc(Nc3ccc(C)c(C(=O)NC)c3)c21 [Example 102] | 0.09 nM | 
Cc1ccc(Nc2nc(-c3ccc4c(c3)N([C@H]3C[C@@H](N5CCCCC5)C3)C(=O)C4(F)F)cc3ncn(C4CC4)c23)cc1C(N)=O [Example 184] | 0.9 nM | 
CC[C@H](C)n1cnc2cc(-c3ccc4c(c3)N([C@H]3C[C@@H](N5CCC[C@@H](F)C5)C3)C(=O)C43CCN(C(C)=O)CC3)nc(Nc3ccc(C)c(C(=O)NC)c3)c21 [Example 157, 5-((6-(1′-acetyl-1-((1S,3R)-3-((R)-3-fluoropiperidin-1-yl)cyclobutyl)-2-oxospiro[indoline-3,4′-piperidin]-6-yl)-3-((S)-sec-butyl)-3H-imidazo[4,5-c]pyridin-4-yl)amino)-N,2-dimethylbenzamide] | 0.2 nM | 
CCNC(=O)c1cc(Nc2nc(-c3ccc4c(c3)N([C@H]3C[C@@H](N5CCCCC5)C3)C(=O)C43CCN(C(C)=O)CC3)cc3ncn(C(C)C)c23)ccc1C [Example 130] | 0.1 nM | 
Cc1c(C(=O)NC2(C(F)F)CC2)cc(Nc2nc(-c3cnc4c(c3)N([C@H]3C[C@@](C)(N5CCOC(C)(C)C5)C3)C(=O)C4(C)C)cc3ncn(C(C)C)c23)c(F)c1F [Example 188, N-(1-(Difluoromethyl)cyclopropyl)-5-((6-(1-((1s,3s)-3-(2,2-dimethylmorpholino)-3-methylcyclobutyl)-3,3-dimethyl-2-oxo-2,3-dihydro-1H-pyrrolo[3,2-b]pyridin-6-yl)-3-isopropyl-3H-imidazo[4,5-c]pyridin-4-yl)amino)-3,4-difluoro-2-methylbenzamide] | 0.4 nM | 
CC(=O)N1CCC2(CC1)C(=O)N([C@H]1C[C@@H](N3CCCCC3)C1)c1cc(-c3cc4ncn(C(C)C)c4c(Nc4cc(C(=O)NC5CC5)c(C)cc4F)n3)ccc12 [Example 91] | 0.1 nM | 
Cc1c(C(=O)NC2(C(F)F)CC2)cc(Nc2nc(-c3cnc4c(c3)N([C@H]3C[C@@](C)(N5CCC6CC5CO6)C3)C(=O)C4(C)C)cc3ncn(C(C)C)c23)c(F)c1F (mixture of isomers) [Example 190, 5-((6-(1-((1s,3s)-3-(6-Oxa-2-azabicyclo[3.2.1]octan-2-yl)-3-methylcyclobutyl)-3,3-dimethyl-2-oxo-2,3-dihydro-1H-pyrrolo[3,2-b]pyridin-6-yl)-3-isopropyl-3H-imidazo[4,5-c]pyridin-4-yl)amino)-N-(1-(difluoromethyl)cyclopropyl)-3,4-difluoro-2-methylbenzamide] | 0.07 nM | 
CC[C@H](C)n1cnc2cc(-c3ccc4c(c3)N([C@H]3C[C@@H](N5CCC6(C5)CC6(F)F)C3)C(=O)C43CCN(C(C)=O)CC3)nc(Nc3ccc(C)c(C(=O)NC)c3)c21 (stereo partly drawn) [Example 158] | 0.2 nM | 

Other lines, results leading:

IC50 [1] | IC50 [2] | SMILES
0.06 nM |  | Cc1c(C(=O)NC2(C(F)F)CC2)cc(Nc2nc(-c3cnc4c(c3)N([C@H]3C[C@@](C)(N5CCCC6(CC6)C5)C3)C(=O)C4(C)C)cc3ncn(C(C)C)c23)c(F)c1F [Example 194, N-(1-(Difluoromethyl)cyclopropyl)-5-((6-(3,3-dimethyl-1-((1s,3s)-3-methyl-3-(5-azaspiro[2.5]octan-5-yl)cyclobutyl)-2-oxo-2,3-dihydro-1H-pyrrolo[3,2-b]pyridin-6-yl)-3-isopropyl-3H-imidazo[4,5-c]pyridin-4-yl)amino)-3,4-difluoro-2-methylbenzamide]
0.01 nM |  | CC(C)n1cnc2cc(-c3cnc4c(c3)N([C@H]3C[C@@](C)(N5CCCOCC5)C3)C(=O)C4(C)C)nc(Nc3cc(C(=O)NC4(C(F)F)CC4)c(Cl)c(F)c3F)c21 [Example 198, 2-Chloro-N-(1-(difluoromethyl)cyclopropyl)-5-((6-(3,3-dimethyl-1-((1s,3s)-3-methyl-3-(1,4-oxazepan-4-yl)cyclobutyl)-2-oxo-2,3-dihydro-1H-pyrrolo[3,2-b]pyridin-6-yl)-3-isopropyl-3H-imidazo[4,5-c]pyridin-4-yl)amino)-3,4-difluorobenzamide]
 | 0.08 nM | CC(C)n1cnc2cc(-c3ccc4c(c3)N([C@H]3C[C@@](C)(N5CCCCC5)C3)C(=O)C4(C)C)nc(Nc3cc(C(=O)NCC(F)F)c(Cl)c(F)c3F)c21 [Example 287, 2-chloro-N-(2,2-difluoroethyl)-5-((6-(3,3-dimethyl-1-((1s,3s)-3-methyl-3-(piperidin-1-yl)cyclobutyl)-2-oxoindolin-6-yl)-3-isopropyl-3H-imidazo[4,5-c]pyridin-4-yl)amino)-3,4-difluorobenzamide]
0.05 nM |  | CC(C)n1cnc2cc(-c3cnc4c(c3)N([C@H]3C[C@@](C)(N5C[C@H]6CC[C@@H]5C6)C3)C(=O)C4(C)C)nc(Nc3cc(C(=O)NC4(C(F)F)CC4)c(Cl)c(F)c3F)c21 [Example 263, 5-((6-(1-((1S,3s)-3-((1R,4S)-2-azabicyclo[2.2.1]heptan-2-yl)-3-methylcyclobutyl)-3,3-dimethyl-2-oxo-2,3-dihydro-1H-pyrrolo[3,2-b]pyridin-6-yl)-3-isopropyl-3H-imidazo[4,5-c]pyridin-4-yl)amino)-2-chloro-N-(1-(difluoromethyl)cyclopropyl)-3,4-difluorobenzamide]
 | 0.1 nM | CC(C)NC(=O)c1cc(Nc2nc(-c3cnc4c(c3)N([C@H]3C[C@@](C)(N5CCCCC5)C3)C(=O)C4(C)C)cc3ncn(C(C)C)c23)c(F)c(F)c1Cl [Example 267, 2-chloro-5-((6-(3,3-dimethyl-1-((1s,3s)-3-methyl-3-(piperidin-1-yl)cyclobutyl)-2-oxo-2,3-dihydro-1H-pyrrolo[3,2-b]pyridin-6-yl)-3-isopropyl-3H-imidazo[4,5-c]pyridin-4-yl)amino)-3,4-difluoro-N-isopropylbenzamide]
0.07 nM |  | Cc1c(C(=O)NC2(C(F)F)CC2)cc(Nc2nc(-c3cc4c(nc3F)C(C)(C)C(=O)N4[C@H]3C[C@@](C)(N4CCCCC4)C3)cc3ncn(C(C)C)c23)c(F)c1F [Example 195, N-(1-(Difluoromethyl)cyclopropyl)-3,4-difluoro-5-((6-(5-fluoro-3,3-dimethyl-1-((1s,3s)-3-methyl-3-(piperidin-1-yl)cyclobutyl)-2-oxo-2,3-dihydro-1H-pyrrolo[3,2-b]pyridin-6-yl)-3-isopropyl-3H-imidazo[4,5-c]pyridin-4-yl)amino)-2-methylbenzamide]
 | 0.07 nM | CC(C)n1cnc2cc(-c3ccc4c(c3)N([C@H]3C[C@@](C)(N5CCCCC5)C3)C(=O)C4(C)C)nc(Nc3cc(C(=O)NCC(F)F)c(Cl)cc3F)c21 [Example 289, 2-chloro-N-(2,2-difluoroethyl)-5-((6-(3,3-dimethyl-1-((1s,3s)-3-methyl-3-(piperidin-1-yl)cyclobutyl)-2-oxoindolin-6-yl)-3-isopropyl-3H-imidazo[4,5-c]pyridin-4-yl)amino)-4-fluorobenzamide]
